According to patent US20260365628A1, “SUBSTITUTED 3,4-DIHYDROQUINOLINONE INHIBITORS OF TSHR” (Septerna, Inc., priority 2022, published 2026):

These compounds were tested against T1, hTSHR (Homo sapiens, UniProt P16473) (assay: hTSHR TR-FRET cAMP Assay (inhibition of M22-stimulated cAMP production)). Details: Expi293F Inducible cells stably expressing hTSHR; cAMP HTRF; stimulated with EC80 of anti-TSHR antibody M22; 15 min compound preincubation, 30 min at 37° C.; read-out: Activity (IC50 bins).
T1 construct: expressed in transfected cells
T1 sequence (P16473 21-764): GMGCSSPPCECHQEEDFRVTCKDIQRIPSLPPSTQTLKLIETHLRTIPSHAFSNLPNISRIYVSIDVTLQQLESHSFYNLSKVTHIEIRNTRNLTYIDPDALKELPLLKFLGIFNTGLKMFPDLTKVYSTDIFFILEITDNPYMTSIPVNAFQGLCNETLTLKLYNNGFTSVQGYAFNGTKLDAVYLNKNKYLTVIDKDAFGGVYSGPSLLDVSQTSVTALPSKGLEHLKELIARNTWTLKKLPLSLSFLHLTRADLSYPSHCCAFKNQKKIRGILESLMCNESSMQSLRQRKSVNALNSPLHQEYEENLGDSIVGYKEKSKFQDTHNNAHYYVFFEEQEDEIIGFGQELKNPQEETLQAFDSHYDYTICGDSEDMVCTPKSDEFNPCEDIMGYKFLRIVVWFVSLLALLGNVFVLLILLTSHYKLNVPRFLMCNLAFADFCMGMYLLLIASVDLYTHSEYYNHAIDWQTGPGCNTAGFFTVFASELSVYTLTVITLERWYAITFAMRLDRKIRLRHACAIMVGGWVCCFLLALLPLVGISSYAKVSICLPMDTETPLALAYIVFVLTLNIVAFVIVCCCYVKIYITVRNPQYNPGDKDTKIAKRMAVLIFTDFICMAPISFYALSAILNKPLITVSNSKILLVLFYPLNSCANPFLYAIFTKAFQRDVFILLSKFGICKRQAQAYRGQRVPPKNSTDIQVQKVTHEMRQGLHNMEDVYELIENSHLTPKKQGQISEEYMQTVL
Format: cell-based
In short: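 Readout was a cAMP HTRF ratio of 655/620 nm after lysis, scaled between the EC80 M22 signal (0% inhibition) and no-agonist vehicle (100%). Frozen induced Expi293F-hTSHR cells saw test compounds (0.5% DMSO) for 15 min at 37 °C before 30 min of M22 stimulation at EC80.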
`C[C@H]1Oc2nc(NC(=O)NC(C)(C)C)ccc2N(Cc2cccc(Cl)c2)C1=O` [Example 287, (R)-1-(tert-butyl)-3-(1-(3-chlorobenzyl)-3-methyl-2-oxo-2,3-dihydro-1H-pyrido[2,3-b][1,4]oxazin-6-yl)urea] was tested, and the IC50 was 0.1 to 1 µM. In the case of `CC(C)(C)NC(=O)Nc1cc2c(cc1C#N)N(Cc1ccccc1)C(=O)CC2` [Example 270, 1-(1-benzyl-7-cyano-2-oxo-3,4-dihydroquinolin-6-yl)-3-tert-butylurea], the IC50 is reported as greater than 1 µM. Work on `CC(c1cccc2c1cnn2CCC(F)(F)F)n1c(=O)cnc2cc(NC(=O)NC(C)(C)C)ccc21` (centres unmarked) [Example 251, 1-(tert-butyl)-3-(2-oxo-1-(1-(1-(3,3,3-trifluoropropyl)-1H-indazol-4-yl)ethyl)-1,2-dihydro-quinoxalin-6-yl)urea] yielded an IC50 greater than 1 µM. `CC(C)(C)NC(=O)Nc1ccc2c(n1)CCC(=O)N2Cc1cccc(C(F)(F)F)c1` [Example 274, 1-(tert-butyl)-3-(6-oxo-5-(3-(trifluoromethyl)benzyl)-5,6,7,8-tetrahydro-1,5-naphthyridin-2-yl)urea] showed an IC50 of 0.1 to 1 µM. In the case of `C[C@H]1Oc2cc(NC(=O)NC3(C(F)(F)F)CCC3)ccc2N([C@@H](C)c2ccccc2)C1=O` [Example 259, 1-((R)-2-methyl-3-oxo-4-((S)-1-phenylethyl)-3,4-dihydro-2H-benzo [b][1,4]oxazin-7-yl)-3-(1-(trifluoro-methyl)cyclo-butyl)urea], the IC50 is reported as less than 0.1 µM. `C[C@@H](c1cccc2ccncc12)n1c(=O)cnc2cc(NC(=O)NC(C)(C)C)ccc21` [Example 126, (S)-1-(tert-butyl)-3-(1-(1-(isoquinolin-8-yl)ethyl)-2-oxo-1,2-dihydroquinoxalin-6-yl)urea] showed an IC50 greater than 1 µM. With `C[C@H]1Oc2cc(NC(=O)NC3(C)CCCC3)ccc2N(Cc2cccc(C(F)(F)F)n2)C1=O` [Example 227, (R)-1-(2-methyl-3-oxo-4-((6-(trifluoromethyl)pyridin-2-yl)methyl)-3,4-dihydro-2H-benzo[b][1,4]oxazin-7-yl)-3-(1-methylcyclopentyl) urea] the IC50 was less than 0.1 µM. `C[C@H]1Oc2cc(NC(=O)NC(C)(C)C)c(F)cc2N(Cc2cccc(OC(F)F)c2)C1=O` [Example 338, (R)-1-(tert-butyl)-3-(4-(3-(difluoromethoxy)benzyl)-6-fluoro-2-methyl-3-oxo-3,4-dihydro-2H-benzo[b][1,4]oxazin-7-yl)urea] was tested, and the IC50 was 0.1 to 1 µM. With `C[C@H]1Oc2cc(NC(=O)NC3(C(F)(F)F)CCC3)ccc2N(Cc2cccc(C(F)(F)F)n2)C1=O` [Example 232, (R)-1-(2-methyl-3-oxo-4-((6-(trifluoromethyl)pyridin-2-yl)methyl)-3,4-dihydro-2H-benzo[b][1,4]oxazin-7-yl)-3-(1-(trifluoromethyl)cyclobutyl)urea] the IC50 was 0.1 to 1 µM. Work on `C[C@H]1Cc2cc(NC(=O)NC(C)(C)C)c(F)cc2N(Cc2ccccc2)C1=O` (single isomer, unassigned) [Example 333] yielded an IC50 greater than 1 µM. Compound `C[C@@H](c1cccc(C(F)(F)F)n1)n1c(=O)cnc2cc(NC(=O)NC(C)(C)C)ccc21` [Example 103, (S)-1-(tert-butyl)-3-(2-oxo-1-(1-(6-(tri-fluoromethyl)pyridin-2-yl)ethyl)-1,2-dihydroquinoxalin-6-yl)urea] has an IC50 of 0.1 to 1 µM. With `C[C@@H](c1cccc(C(F)(F)F)c1)n1c(=O)cnc2cc(NC(=O)NC(C)(C)C)ccc21` [Example 99, (S)-1-(tert-butyl)-3-(2-oxo-1-(1-(3-(trifluoromethyl)phenyl)ethyl)-1,2-dihydroquinoxalin-6-yl)urea] the IC50 was 0.1 to 1 µM. In the case of `CC(C)(C)NC(=O)Nc1ccc2c(c1)CC(C(F)(F)F)C(=O)N2Cc1ccccc1` (centres unmarked) [Example 301, 1-(1-benzyl-2-oxo-3-(trifluoromethyl)-1,2,3,4-tetrahydroquinolin-6-yl)-3-(tert-butyl)urea], the IC50 is reported as greater than 1 µM. Compound `C[C@H]1Oc2cc(NC(=O)NC(C)(C)C)ccc2N([C@@H](C)c2cccc(C(F)(F)F)n2)C1=O` [Example 186, 1-(tert-butyl)-3-((R)-2-methyl-3-oxo-4-((S)-1-(6-(trifluoromethyl)pyridin-2-yl)ethyl)-3,4-dihydro-2H-benzo[b][1,4]oxazin-7-yl)urea] has an IC50 of less than 0.1 µM. For `C[C@@H](c1cccc(OC2CCCCC2)c1)n1c(=O)cnc2cc(NC(=O)NC(C)(C)C)ccc21` [Example 115, (S)-1-(tert-butyl)-3-(1-(1-(3-(cyclohexyloxy)phenyl)ethyl)-2-oxo-1,2-dihydroquinoxalin-6-yl)urea], the IC50 was 0.1 to 1 µM. With `CC(c1cc(C(F)(F)F)ccn1)n1c(=O)cnc2cc(NC(=O)NC(C)(C)C)ccc21` (centres unmarked) [Example 253, 1-(tert-butyl)-3-(2-oxo-1-(1-(4-(trifluoromethyl)pyridin-2-yl)ethyl)-1,2-dihydro-quinoxalin-6-yl)urea] the IC50 was greater than 1 µM. Work on `C[C@@H](c1cccc(C#CC(C)(C)O)c1)n1c(=O)cnc2cc(NC(=O)NC(C)(C)C)ccc21` [Example 113, (S)-1-(tert-butyl)-3-(1-(1-(3-(3-hydroxy-3-methylbut-1-yn-1-yl)phenyl)ethyl)-2-oxo-1,2-dihydroquinoxalin-6-yl)urea] yielded an IC50 greater than 1 µM. With `CC(c1cccc(OC(F)(F)F)c1)n1c(=O)cnc2cc(NC(=O)[C@H]3CCC3(C)C)ccc21` (stereo in doubt) [Example 220, (S)-2,2-dimethyl-N-(2-oxo-1-((R)-1-(3-(trifluoromethoxy)phenyl)ethyl)-1,2-dihydroquinoxalin-6-yl) cyclobutane-1-carboxamide] the IC50 was 0.1 to 1 µM. For `C[C@@H](c1cccc(CC(F)(F)F)n1)n1c(=O)cnc2cc(NC(=O)NC(C)(C)C)ccc21` [Example 150, (S)-1-(tert-butyl)-3-(2-oxo-1-(1-(6-(2,2,2-trifluoroethyl)pyridin-2-yl)ethyl)-1,2-dihydroquinoxalin-6-yl)urea], the IC50 was 0.1 to 1 µM. `C[C@H]1Oc2cc(NC(=O)NC(C)(C)CCO)ccc2N(Cc2ccccc2)C1=O` [Example 236, (R)-1-(4-benzyl-2-methyl-3-oxo-3,4-dihydro-2H-benzo[b][1,4]oxazin-7-yl)-3-(4-hydroxy-2-methylbutan-2-yl)urea] was tested, and the IC50 was 0.1 to 1 µM. In the case of `CC(C)(C)NC(=O)Nc1ccc2c(c1)CCC(=O)N2Cc1ccccc1C#N` [Example 20, 1-(tert-butyl)-3-(1-(2-cyanobenzyl)-2-oxo-1,2,3,4-tetrahydroquinolin-6-yl)urea], the IC50 is reported as less than 0.1 µM. Compound `CC(C)(C)NC(=O)Nc1ccc2c(c1)CCC(=O)N2Cc1cccc(C(F)(F)F)c1F` [Example 54, 1-(tert-butyl)-3-(1-(2-fluoro-3-(trifluoromethyl)benzyl)-2-oxo-1,2,3,4-tetrahydroquinolin-6-yl)urea] has an IC50 of less than 0.1 µM. In the case of `CC(C)(CNC(=O)Nc1ccc2c(c1)ncc(=O)n2Cc1cccc(OC(F)(F)F)c1)C(F)(F)F` [Example 244, 1-(2-oxo-1-(3-(trifluoromethoxy)benzyl)-1,2-dihydroquinoxalin-6-yl)-3-(3,3,3-trifluoro-2,2-dimethylpropyl) urea], the IC50 is reported as 0.1 to 1 µM. For `C[C@@H](c1cccc(Cl)c1)N1C(=O)CCc2nc(NC(=O)NC(C)(C)C)ccc21` [Example 290, (S)-1-(tert-butyl)-3-(5-(1-(3-chlorophenyl)ethyl)-6-oxo-5,6,7,8-tetrahydro-1,5-naphthyridin-2-yl)urea], the IC50 was greater than 1 µM. `CC1Cc2cc(NC(=O)NC(C)(C)C)ccc2N(Cc2ccccc2)C1=O` (centres unmarked) [Example 5, 1-(1-benzyl-3-methyl-2-oxo-1,2,3,4-tetrahydroquinolin-6-yl)-3-(tert-butyl)urea] was tested, and the IC50 was less than 0.1 µM. `Cc1ccc(C#N)c(CN2C(=O)CCc3cc(NC(=O)NC(C)(C)C)ccc32)c1` [Example 266, 3-tert-butyl-1-{1-[(2-cyano-5-methylphenyl)methyl]-2-oxo-3,4-dihydroquinolin-6-yl}urea] was tested, and the IC50 was greater than 1 µM. Work on `C[C@H]1Oc2nc(NC(=O)NC(C)(C)C)c(C#N)cc2N(Cc2cccc(C(F)F)c2)C1=O` [Example 371, (R)-1-(tert-butyl)-3-(7-cyano-1-(3-(difluoromethyl)benzyl)-3-methyl-2-oxo-2,3-dihydro-1H-pyrido[2,3-b][1,4]oxazin-6-yl)urea] yielded an IC50 of less than 0.1 µM. With `C[C@@H](c1cccc([C@@H](O)C(F)(F)F)n1)n1c(=O)cnc2cc(NC(=O)NC(C)(C)C)ccc21` [Example 153] the IC50 was 0.1 to 1 µM. Compound `CC(C)(C)NC(=O)Nc1cc(F)c2c(c1)CCC(=O)N2Cc1ccccc1` [Example 69, 1-(1-benzyl-8-fluoro-2-oxo-1,2,3,4-tetrahydroquinolin-6-yl)-3-(tert-butyl)urea] has an IC50 of 0.1 to 1 µM.
